Assay results from PubChem BioAssay AID248 (DTP/NCI, 2004).
Where “and” joins values, the source holds several entries; their conditions need not be identical. Equal entries are not always repeated. Inconclusive results and toxic doses are left out. No stated cut-off is given here; in the data, active means T/C of 150% or more; inactive means T/C below 125%.

System: L1210 leukemia ip in BDF1 mice, survival T/C
Assay: NCI In Vivo Anticancer Drug Screen. Data for tumor model L1210 Leukemia (intraperitoneal) in B6D2F1 (BDF1) mice
Details: endpoint: mean survival time, higher = longer survival
How it was run: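 Mice bearing the transplanted tumor received compound or vehicle. Survival of the treated group was divided by that of the vehicle-treated control group to give the ratio.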

[1] = dose: 25.0 mg/kg/injection, schedule: Q01DX009 (ip), vehicle: Klucel (hydroxypropylcellulose) (HPC)
[2] = dose: 100.0 mg/kg/injection, schedule: Q01DX009 (ip), vehicle: Klucel (hydroxypropylcellulose) (HPC)
[3] = dose: 100.0 mg/kg/injection, schedule: Q04DX003 (ip), vehicle: Klucel (hydroxypropylcellulose) (HPC)
[4] = dose: 200.0 mg/kg/injection, schedule: Q04DX003 (ip), vehicle: Klucel (hydroxypropylcellulose) (HPC)
[5] = dose: 100.0 mg/kg/injection, schedule: Q01DX009 (ip), vehicle: saline with Tween-80
[6] = dose: 100.0 mg/kg/injection, schedule: Q04DX003 (ip), vehicle: saline with Tween-80
[7] = dose: 200.0 mg/kg/injection, schedule: Q01DX009 (ip), vehicle: saline with Tween-80
[8] = dose: 200.0 mg/kg/injection, schedule: Q04DX003 (ip), vehicle: saline with Tween-80
[9] = dose: 400.0 mg/kg/injection, schedule: Q01DX009 (ip), vehicle: saline with Tween-80
[10] = dose: 400.0 mg/kg/injection, schedule: Q04DX003 (ip), vehicle: saline with Tween-80
[11] = dose: 100.0 mg/kg/injection, schedule: Q01DX001 (ip), vehicle: carboxymethylcellulose (CMC)
[12] = dose: 200.0 mg/kg/injection, schedule: Q01DX001 (ip), vehicle: carboxymethylcellulose (CMC)
[13] = dose: 400.0 mg/kg/injection, schedule: Q01DX001 (ip), vehicle: carboxymethylcellulose (CMC)
[14] = dose: 100.0 mg/kg/injection, schedule: Q04DX003 (ip), vehicle: saline
[15] = dose: 200.0 mg/kg/injection, schedule: Q04DX003 (ip), vehicle: saline
[16] = dose: 400.0 mg/kg/injection, schedule: Q04DX003 (ip), vehicle: saline
[17] = dose: 200.0 mg/kg/injection, schedule: Q01DX009 (ip), vehicle: Klucel (hydroxypropylcellulose) (HPC)
[18] = dose: 400.0 mg/kg/injection, schedule: Q01DX009 (ip), vehicle: Klucel (hydroxypropylcellulose) (HPC)

Measured: T/C

C/C(=N\N1CCCCCC1)c1ccccc1
inactive: dose: 100.0 mg/kg/injection, schedule: Q01DX009 (sc), vehicle: olive oil, sesame oil, peanut oil 95 % of control | dose: 100.0 mg/kg/injection, schedule: Q04DX003 (sc), vehicle: olive oil, sesame oil, peanut oil 112 % of control | dose: 200.0 mg/kg/injection, schedule: Q01DX009 (sc), vehicle: olive oil, sesame oil, peanut oil 98 % of control | dose: 200.0 mg/kg/injection, schedule: Q04DX003 (sc), vehicle: olive oil, sesame oil, peanut oil 105 % of control | dose: 400.0 mg/kg/injection, schedule: Q01DX009 (sc), vehicle: olive oil, sesame oil, peanut oil 97 % of control | dose: 400.0 mg/kg/injection, schedule: Q04DX003 (sc), vehicle: olive oil, sesame oil, peanut oil 105 % of control

CCO/C=C1\SC(=S)N(c2cccc(O)c2)C1=O
inactive: [1] 86 % of control | dose: 50.0 mg/kg/injection, schedule: Q01DX009 (ip), vehicle: Klucel (hydroxypropylcellulose) (HPC) 113 % of control | [2] 93 % of control

C/C(=N/Nc1ccc2c(O)cc(S(=O)(=O)O)cc2c1)c1ccc(Cl)cc1
inactive: dose: 75.0 mg/kg/injection, schedule: Q01DX009 (ip), vehicle: saline 101 % of control | dose: 150.0 mg/kg/injection, schedule: Q01DX009 (ip), vehicle: saline 98 % of control | dose: 300.0 mg/kg/injection, schedule: Q01DX009 (ip), vehicle: saline 96 % of control

CCC1C(=O)N(C)c2ccccc21 (stereo unspecified)
inactive: dose: 100.0 mg/kg/injection, schedule: Q01DX001 (ip), vehicle: acetone 100 % of control | dose: 200.0 mg/kg/injection, schedule: Q01DX001 (ip), vehicle: acetone 96 % of control | dose: 400.0 mg/kg/injection, schedule: Q01DX001 (ip), vehicle: acetone 97 % of control

CC(N)c1ccc(OCCOc2ccc(C(C)(C)CC(C)(C)C)cc2)cc1 (stereo unspecified)
inactive: dose: 6.25 mg/kg/injection, schedule: Q01DX009 (ip), vehicle: Klucel (hydroxypropylcellulose) (HPC) 93 % of control | dose: 12.5 mg/kg/injection, schedule: Q01DX009 (ip), vehicle: Klucel (hydroxypropylcellulose) (HPC) 94 % of control | [1] 93 % of control | [3] 96 % of control | [4] 95 % of control

O=C1C(Cl)=C(NC2CCCC2)C(=O)c2ccccc21
inactive: dose: 12.5 mg/kg/injection, schedule: Q01DX001 (ip), vehicle: saline with Tween-80 94 % of control | dose: 25.0 mg/kg/injection, schedule: Q01DX001 (ip), vehicle: saline with Tween-80 94 % of control

CN(C(=O)CCCO)c1cc([N+](=O)[O-])ccc1OCc1ccccc1
inactive: [5] 93 % of control | [6] 92 % of control | [7] 93 % of control | [8] 101 % of control | [9] 90 % of control | [10] 92 % of control

CCCCCCCCCCCCCC(CC1CCCCC1)CC1CCCCC1
inactive: dose: 100.0 mg/kg/injection, schedule: Q01DX001 (ip), vehicle: saline with Tween-80 103 % of control | dose: 200.0 mg/kg/injection, schedule: Q01DX001 (ip), vehicle: saline with Tween-80 102 % of control | dose: 400.0 mg/kg/injection, schedule: Q01DX001 (ip), vehicle: saline with Tween-80 100 % of control

CCOC(=O)Nc1ccc2c(c1)/C(=N/O)c1ccccc1-2
inactive: [11] 94 % of control | [12] 91 % of control | [13] 91 % of control

COc1ccccc1/C=C/c1ccnc2ccccc12
inactive: dose: 100.0 mg/kg/injection, schedule: Q01DX001 (ip), vehicle: saline 101 % of control | [14] 97 % of control | dose: 200.0 mg/kg/injection, schedule: Q01DX001 (ip), vehicle: saline 102 % of control | [15] 100 % of control | dose: 400.0 mg/kg/injection, schedule: Q01DX001 (ip), vehicle: saline 98 % of control | [16] 93 % of control

O=CC1(c2ccccc2)SCCCS1
inactive: [14] 106 % of control | [15] 97 % of control | [16] 100 % of control

COc1ccc(C2C=C(C)Oc3c2c(=O)oc2ccccc32)cc1OC (stereo unspecified)
inactive: dose: 6.25 mg/kg/injection, schedule: Q01DX009 (ip), vehicle: water 96 % of control | dose: 12.5 mg/kg/injection, schedule: Q01DX009 (ip), vehicle: water 98 % of control | dose: 25.0 mg/kg/injection, schedule: Q01DX009 (ip), vehicle: water 100 % of control and 91 % of control | dose: 50.0 mg/kg/injection, schedule: Q01DX009 (ip), vehicle: water 86 % of control

COc1ccc2c(c1)C1(C)CCCC(C)C1=CC2=O (stereo unspecified)
inactive: dose: 25.0 mg/kg/injection, schedule: Q01DX001 (ip), vehicle: other 100 % of control | dose: 50.0 mg/kg/injection, schedule: Q01DX001 (ip), vehicle: other 100 % of control | dose: 100.0 mg/kg/injection, schedule: Q01DX001 (ip), vehicle: other 97 % of control

OCC1(CO)CCC=CO1
inactive: dose: 50.0 mg/kg/injection, schedule: Q01DX001 (ip), vehicle: carboxymethylcellulose (CMC) 113 % of control | [11] 100 % of control | [12] 100 % of control | [13] 97 % of control

Nc1ccc(C(=O)NO)cc1
inactive: dose: 62.0 mg/kg/injection, schedule: Q03HX024 (ip), vehicle: saline with Tween-80 101 % of control | [2] 98 % of control | dose: 125.0 mg/kg/injection, schedule: Q03HX024 (ip), vehicle: saline with Tween-80 97 % of control | [17] 98 % of control | dose: 200.0 mg/kg/injection, schedule: Q01DX Z (ip), vehicle: carboxymethylcellulose (CMC) 118 % of control | dose: 200.0 mg/kg/injection, schedule: Q01DX Z (ip), vehicle: saline 117 % of control and 123 % of control | dose: 300.0 mg/kg/injection, schedule: Q01DX Z (ip), vehicle: carboxymethylcellulose (CMC) 115 % of control | [18] 108 % of control | dose: 443.0 mg/kg/injection, schedule: Q01DX Z (ip), vehicle: saline 119 % of control | dose: 675.0 mg/kg/injection, schedule: Q01DX Z (ip), vehicle: saline 91 % of control | dose: 800.0 mg/kg/injection, schedule: Q01DX009 (ip), vehicle: Klucel (hydroxypropylcellulose) (HPC) 106 % of control

CC1CSC(=S)S1 (stereo unspecified)
inactive: dose: 50.0 mg/kg/injection, schedule: Q04DX003 (ip), vehicle: Klucel (hydroxypropylcellulose) (HPC) 102 % of control | [3] 107 % of control | [4] 104 % of control

CC1CCC(NC2=NCCO2)C1 (stereo unspecified)
inactive: [6] 96 % of control | [8] 93 % of control | [10] 93 % of control

CCOC(=O)NN(C(=O)OCC)c1c(N)nc(N)[nH]c1=O
inactive: dose: 100.0 mg/kg/injection, schedule: Q01DX001 (ip), vehicle: Klucel (hydroxypropylcellulose) (HPC) 92 % of control | dose: 200.0 mg/kg/injection, schedule: Q01DX001 (ip), vehicle: Klucel (hydroxypropylcellulose) (HPC) 101 % of control | dose: 400.0 mg/kg/injection, schedule: Q01DX001 (ip), vehicle: Klucel (hydroxypropylcellulose) (HPC) 92 % of control

CCCCN1CCCC(OC(=O)N(C)C)C1 (stereo unspecified)
inactive: dose: 25.0 mg/kg/injection, schedule: Q04DX002 (ip), vehicle: saline 105 % of control | dose: 50.0 mg/kg/injection, schedule: Q04DX002 (ip), vehicle: saline 102 % of control | dose: 100.0 mg/kg/injection, schedule: Q04DX002 (ip), vehicle: saline 97 % of control

CN(C)c1ccccc1C(=O)N/N=C/c1ccc(F)cc1
inactive: [2] 95 % of control | [3] 99 % of control | [17] 93 % of control | [4] 99 % of control | [18] 96 % of control | dose: 400.0 mg/kg/injection, schedule: Q04DX003 (ip), vehicle: Klucel (hydroxypropylcellulose) (HPC) 93 % of control

Cc1ccc(SCCN)cc1
inactive: dose: 75.0 mg/kg/injection, schedule: Q01DX001 (ip), vehicle: saline 105 % of control | dose: 150.0 mg/kg/injection, schedule: Q01DX001 (ip), vehicle: saline 96 % of control

O=C(O)c1ccccc1C(=O)NNC(=O)c1ccccc1C(=O)O
inactive: [5] 97 % of control | [6] 97 % of control | [7] 94 % of control | [8] 108 % of control | [9] 94 % of control | [10] 92 % of control
